# Data as given in PMC12486440, “Design, synthesis, and in silico studies of new benzofuran–pyrazole hybrids as multi-kinase inhibitors with potential antiproliferative activity” (RSC Advances, 2025).
# Columns and labels:
# UO-31 = settings: Homo sapiens, UO-31
# CCRF-CEM = settings: Homo sapiens, CCRF-CEM
# EGFR (WT) = target: T1, EGFR (WT) (Homo sapiens, UniProt P00533); test: EGFR WT kinase inhibitory assay (HTRF); type: biochemical
# T1 construct: purchased Sigma
# Melanoma subpanel = test: NCI 60 subpanel summary; type: cell-based, human
# Breast cancer subpanel = test: NCI 60 subpanel summary; type: cell-based, human
# [1] = tested on: NCI 60 cancer cell line panel; test: NCI 60 full panel summary
# Leukemia subpanel = test: NCI 60 subpanel summary; type: cell-based, human
# MCF-7 cancer cells = test: Cell cycle analysis (PI flow cytometry); type: cell-based, human; settings: GI50 concentration 2.75 μM, 48 h
# Method: More details are presented in the SI.
# Given that 3d has emerged as a well-balanced active compound that functions as both an anticancer agent and a multi-targeting protein kinase suppressor, it was of interest to gain a deeper understanding of how 3d inhibits the growth of cancer cells. A propidium iodide (PI) staining experiment was performed in this study to look at its effect on cell cycle distribution and apoptosis activation.[81,82]
# This blocked cell cycle passage at the G0–G1 stage can stop cells from dividing and growing, which is in line with that shown by other tests about the ability of compound 3d to stop cell division and growth (Fig. 3). […]
# minute reaction, 50 μl of Kinase-Glo Max reagent was added to each well. […] 10) Luminescence was measured using the microplate reader. […]
# The protocol of the experiment depends on the dilution of the enzyme, substrate, ATP, and inhibitors in kinase buffer. […] Then, luminescence (integration time 0.5–1 second) was recorded according to the manufacturer’s instructions. […]
# Further exploration of the cytotoxic activity of compound 3d was performed using propidium iodide (PI) flow cytomertric analysis to measure the extent of PI that binds to DNA of dead cells with permeable plasma membranes to determine cell cycle status in tissue culture quantitate cell death at all cell phases. […]
# [2] = single dose 10 μM, colon cancer
# [3] = Homo sapiens, subpanel mean graph midpoint, read-out: MG-MID (GI50)
# [4] = full panel MG-MID / subpanel MG-MID
# T1 sequence (P00533 25-1210): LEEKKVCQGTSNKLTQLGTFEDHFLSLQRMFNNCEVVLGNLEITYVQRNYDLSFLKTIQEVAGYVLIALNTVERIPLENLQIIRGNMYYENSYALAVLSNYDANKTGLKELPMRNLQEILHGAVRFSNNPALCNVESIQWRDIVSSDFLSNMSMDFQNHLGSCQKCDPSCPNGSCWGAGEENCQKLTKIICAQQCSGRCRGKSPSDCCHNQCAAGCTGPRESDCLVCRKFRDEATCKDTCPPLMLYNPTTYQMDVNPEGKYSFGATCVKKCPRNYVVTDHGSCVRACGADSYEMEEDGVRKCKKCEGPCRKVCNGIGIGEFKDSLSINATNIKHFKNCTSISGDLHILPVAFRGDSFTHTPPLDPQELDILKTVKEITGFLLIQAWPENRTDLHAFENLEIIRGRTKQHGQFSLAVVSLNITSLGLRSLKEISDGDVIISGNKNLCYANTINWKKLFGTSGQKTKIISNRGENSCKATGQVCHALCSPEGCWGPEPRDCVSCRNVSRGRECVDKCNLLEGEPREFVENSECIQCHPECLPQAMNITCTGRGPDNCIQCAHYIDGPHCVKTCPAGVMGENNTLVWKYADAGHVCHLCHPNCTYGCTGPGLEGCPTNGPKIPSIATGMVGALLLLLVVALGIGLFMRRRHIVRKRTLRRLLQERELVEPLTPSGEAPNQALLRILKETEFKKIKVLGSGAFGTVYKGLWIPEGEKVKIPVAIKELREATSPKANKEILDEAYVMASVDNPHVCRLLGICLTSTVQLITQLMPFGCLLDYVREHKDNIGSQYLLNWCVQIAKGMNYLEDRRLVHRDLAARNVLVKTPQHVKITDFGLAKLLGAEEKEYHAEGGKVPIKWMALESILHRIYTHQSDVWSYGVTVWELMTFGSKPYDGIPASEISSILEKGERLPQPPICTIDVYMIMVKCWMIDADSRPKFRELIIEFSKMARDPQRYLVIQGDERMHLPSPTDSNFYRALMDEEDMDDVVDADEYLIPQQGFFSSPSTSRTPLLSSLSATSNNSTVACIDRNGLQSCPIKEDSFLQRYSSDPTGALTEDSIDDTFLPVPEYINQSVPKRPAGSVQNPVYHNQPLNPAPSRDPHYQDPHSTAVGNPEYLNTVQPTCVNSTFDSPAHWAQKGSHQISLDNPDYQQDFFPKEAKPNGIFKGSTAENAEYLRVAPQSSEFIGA
smiles,measurement,setting,value
"c1ccc(-n2cc(C3CC(c4nc5ccccc5[nH]4)=NN3)c(-c3cc4ccccc4o3)n2)cc1 (stereo not shown) [3d, 3-(Benzofuran-2-yl)-4-(3-(1H-benzo[d]imidazol-2-yl)-4,5-dihydro-1H-pyrazol-5-yl)-1-phenyl-1H-pyrazole]",GI50,UO-31,2.1 µM
same,GI50,"HT29; Homo sapiens, HT-29",6.46 µM
same,GI%,HT29; [2],64.97%
same,GI50,"LOX IMVI; Homo sapiens, LOX IMVI",3.71 µM
same,GI%,"LOX IMVI; single dose 10 μM, melanoma",75.62%
same,GI50,"HCC-2998; Homo sapiens, HCC 2998",5.25 µM
same,GI%,HCC-2998; [2],70.76%
same,GI50,CCRF-CEM,3.11 µM
same,GI50,"SK-MEL-5; Homo sapiens, SK-MEL-5",2.76 µM
same,GI%,"SK-MEL-5; single dose 10 μM, melanoma",90.42%
same,GI50,"ACHN; Homo sapiens, ACHN",3.11 µM
same,GI%,"ACHN; single dose 10 μM, renal carcinoma",92.45%
same,IC50,EGFR (WT),0.398 µM
same,times more effective at suppressing EGFR (WT) than erlotinib,EGFR (WT); ratio of IC50 values,1.2
same,GI50,"OVCAR-8; Homo sapiens, OVCAR-8",5.88 µM
same,GI%,"OVCAR-8; single dose 10 μM, ovarian carcinoma",86.94%
same,GI50,"SNB-75; Homo sapiens, SNB-75",2.72 µM
same,GI%,"SNB-75; single dose 10 μM, CNS cancer",65.51%
same,GI50,Melanoma subpanel; [3],3.92 µM
same,Selectivity index,Melanoma subpanel; [4],1.07
same,GI50,Breast cancer subpanel; [3],4.49 µM
same,Selectivity index,Breast cancer subpanel; [4],0.935
same,GI50,"[1]; Homo sapiens, read-out: Full panel MG-MID (GI50), five-dose assay, mean graph midpoint over full panel",4.2 µM
same,CC50,"[1]; Homo sapiens, read-out: LC50",> 100 µM
same,Mean GI%,"[1]; single dose 10 μM, mean over the NCI 60 panel",83.58%
same,GI50,Leukemia subpanel; [3],3.23 µM
same,Selectivity index,Leukemia subpanel; [4],1.30
same,cell percentage in the G2/M stage,MCF-7 cancer cells; control […],15.9%
same,percentage of cells in the G0–G1 phase,MCF-7 cancer cells; untreated 48.39%,61.03%
same,GI50,"HOP-62; Homo sapiens, HOP-62",3.66 µM
same,GI%,"HOP-62; single dose 10 μM, non-small lung carcinoma",74.46%
